Several values for one entry are separate records, joined by “and”; a condition that tells them apart may be missing. Equal values may be shown once. Toxic doses and inconclusive results are not listed. The calls were made as follows: active = survival T/C of 150% or more; inactive = T/C below 125% in these data.
System: CD2F1 mice, L1210 leukemia ip, survival T/C
Test: NCI In Vivo Anticancer Drug Screen. Data for tumor model L1210 Leukemia (intraperitoneal) in CD2F1 (CDF1) mice
Conditions: endpoint: mean survival time, higher = longer survival
Summary of the method: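 In this screen, transplantable tumors were grown in mice given either the compound or its vehicle. Results were expressed as the treated measurement relative to the control measurement.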

[1] = dose: 25.0 mg/kg/injection, schedule: Q04DX002 (ip), vehicle: saline
[2] = dose: 50.0 mg/kg/injection, schedule: Q04DX002 (ip), vehicle: saline
[3] = dose: 25.0 mg/kg/injection, schedule: Q01DX009 (ip), vehicle: saline
[4] = dose: 50.0 mg/kg/injection, schedule: Q01DX009 (ip), vehicle: saline
[5] = dose: 100.0 mg/kg/injection, schedule: Q01DX009 (ip), vehicle: saline
[6] = dose: 200.0 mg/kg/injection, schedule: Q01DX009 (ip), vehicle: saline
[7] = dose: 100.0 mg/kg/injection, schedule: Q01DX001 (ip), vehicle: saline with Tween-80
[8] = dose: 100.0 mg/kg/injection, schedule: Q01DX009 (ip), vehicle: saline with Tween-80
[9] = dose: 200.0 mg/kg/injection, schedule: Q01DX001 (ip), vehicle: saline with Tween-80
[10] = dose: 400.0 mg/kg/injection, schedule: Q01DX001 (ip), vehicle: saline with Tween-80
[11] = dose: 400.0 mg/kg/injection, schedule: Q01DX009 (ip), vehicle: saline with Tween-80
[12] = dose: 100.0 mg/kg/injection, schedule: Q04DX002 (ip), vehicle: saline with Tween-80
[13] = dose: 200.0 mg/kg/injection, schedule: Q04DX002 (ip), vehicle: saline with Tween-80
[14] = dose: 100.0 mg/kg/injection, schedule: Q04DX002 (ip), vehicle: saline
[15] = dose: 100.0 mg/kg/injection, schedule: Q04DX003 (ip), vehicle: saline with Tween-80
[16] = dose: 200.0 mg/kg/injection, schedule: Q04DX003 (ip), vehicle: saline with Tween-80
[17] = dose: 400.0 mg/kg/injection, schedule: Q04DX003 (ip), vehicle: saline with Tween-80
[18] = dose: 100.0 mg/kg/injection, schedule: Q04DX003 (ip), vehicle: saline
[19] = dose: 200.0 mg/kg/injection, schedule: Q04DX003 (ip), vehicle: saline
[20] = dose: 400.0 mg/kg/injection, schedule: Q04DX003 (ip), vehicle: saline
[21] = dose: 6.25 mg/kg/injection, schedule: Q01DX009 (ip), vehicle: saline with Tween-80
[22] = dose: 12.5 mg/kg/injection, schedule: Q01DX009 (ip), vehicle: saline with Tween-80
[23] = dose: 25.0 mg/kg/injection, schedule: Q01DX009 (ip), vehicle: saline with Tween-80
[24] = dose: 25.0 mg/kg/injection, schedule: Q04DX003 (ip), vehicle: saline with Tween-80
[25] = dose: 50.0 mg/kg/injection, schedule: Q04DX003 (ip), vehicle: saline with Tween-80
[26] = dose: 400.0 mg/kg/injection, schedule: Q01DX009 (ip), vehicle: saline
[27] = dose: 100.0 mg/kg/injection, schedule: Q01DX001 (ip), vehicle: saline
[28] = dose: 200.0 mg/kg/injection, schedule: Q01DX001 (ip), vehicle: saline
[29] = dose: 400.0 mg/kg/injection, schedule: Q01DX001 (ip), vehicle: saline
[30] = dose: 200.0 mg/kg/injection, schedule: Q01DX009 (ip), vehicle: saline with Tween-80

Measured: T/C

CCCCCCCCCCCCCCCCNCC(O)CN (stereo unspecified)
inactive: dose: 12.5 mg/kg/injection, schedule: Q04DX002 (ip), vehicle: saline 95 % of control | [1] 106 % of control | [2] 103 % of control

NC1CCC(C(=O)O)CC1 (stereo unspecified)
inactive: [3] 105 % of control | [4] 97 % of control and 105 % of control | [5] 94 % of control and 102 % of control | [6] 102 % of control

COC1OCC(N=[N+]=[N-])C(OS(C)(=O)=O)C1OS(C)(=O)=O (stereo unspecified)
inactive: [7] 95 % of control | [8] 101 % of control | [9] 98 % of control and 94 % of control | [10] 94 % of control and 101 % of control | [11] 97 % of control

CCCCOc1ccc(Cl)cc1
inactive: [12] 90 % of control | [13] 87 % of control

NC(CCl)=NCc1ccccn1
inactive: [1] 108 % of control | [2] 97 % of control | [14] 101 % of control

CN(CCSSCCN(C)/N=C/c1ccccc1)/N=C/c1ccccc1
inactive: [15] 97 % of control | [16] 101 % of control | [17] 101 % of control

CN=C(N)CS
inactive: [1] 101 % of control | [2] 101 % of control | [14] 101 % of control

CC(C)(Cl)S(=O)c1ccccc1 (stereo unspecified)
inactive: [15] 93 % of control | [16] 93 % of control | [17] 95 % of control

O=Cc1ccc2ccccc2[n+]1[O-]
inactive: [18] 101 % of control | [19] 100 % of control | [20] 101 % of control

Cc1cc([N+](=O)[O-])cc(C)c1O
inactive: [15] 100 % of control | [16] 96 % of control | [17] 100 % of control

[N-]=[N+]=Nc1ccccc1C(=O)NCc1cnc(N)nc1N
inactive: [15] 95 % of control | [16] 95 % of control

OCCC(c1ccccc1)(c1ccccc1)c1ccccc1
inactive: [21] 113 % of control | [22] 108 % of control | [23] 100 % of control

C(CC1CCNCC1)CC1CCNCC1
inactive: [24] 95 % of control | [25] 87 % of control

Cn1c(N)c(N)c(=O)n(C)c1=O
inactive: [14] 109 % of control | dose: 200.0 mg/kg/injection, schedule: Q04DX002 (ip), vehicle: saline 102 % of control | dose: 400.0 mg/kg/injection, schedule: Q04DX002 (ip), vehicle: saline 109 % of control

CC(C)OC(=S)S
inactive: [5] 101 % of control | [18] 100 % of control | [6] 102 % of control | [19] 97 % of control | [26] 107 % of control | [20] 88 % of control

ON(C(=S)Nc1ccccc1)c1ccccc1
inactive: [27] 93 % of control | [28] 98 % of control | [29] 97 % of control

Cc1c2ccccc2c(CSCCC(N)C(=O)O)c2ccc3ccccc3c12 (stereo unspecified)
inactive: [15] 96 % of control | [16] 87 % of control

CN(C)C(=O)Nc1cccc2ccccc12
inactive: [12] 94 % of control | [13] 105 % of control | dose: 400.0 mg/kg/injection, schedule: Q04DX002 (ip), vehicle: saline with Tween-80 90 % of control

COC(=O)C1C(O)C(C)C(O)C(C)(O)C=C(C)C2=C3C(=C(C)C(=O)c4c(O)c(c(C)c(OC(C)=O)c43)NC(=O)C(C)=C/C=C\C(C)(O)C(O)C(C)C1O)OCO2 (stereo unspecified)
inactive: dose: 12.5 mg/kg/injection, schedule: Q04DX003 (ip), vehicle: saline with Tween-80 96 % of control | [24] 101 % of control | [25] 101 % of control | [15] 111 % of control

COC1OC(COS(=O)(=O)c2ccc(C)cc2)C(SC#N)C1OS(=O)(=O)c1ccc(C)cc1 (stereo unspecified)
inactive: dose: 50.0 mg/kg/injection, schedule: Q01DX001 (ip), vehicle: saline 91 % of control | [27] 89 % of control | [28] 95 % of control | [29] 95 % of control

CCCCCCCCCCCCCCCCOc1ccccc1CNc1cc(Cl)ccc1Cl
inactive: [8] 102 % of control | [15] 95 % of control | [30] 96 % of control | [16] 95 % of control | [11] 93 % of control | [17] 89 % of control

CC1(C(=O)O)CCCC2(C)c3cc(O)ccc3CCC12 (stereo unspecified)
inactive: dose: 50.0 mg/kg/injection, schedule: Q01DX009 (ip), vehicle: Klucel (hydroxypropylcellulose) (HPC) 94 % of control | dose: 100.0 mg/kg/injection, schedule: Q01DX009 (ip), vehicle: Klucel (hydroxypropylcellulose) (HPC) 90 % of control

c1ccc(COCCOc2ccccc2)cc1
inactive: [15] 96 % of control | [16] 98 % of control | [17] 102 % of control

CN(C)CCOS(C)(=O)=O
inactive: [18] 100 % of control | [19] 98 % of control | [20] 100 % of control

C/C=C/c1cc2c(c(=O)o1)C(=O)[C@@H](O)[C@H](C)O2
inactive: [21] 101 % of control | [22] 105 % of control | [23] 97 % of control | dose: 50.0 mg/kg/injection, schedule: Q01DX009 (ip), vehicle: saline with Tween-80 101 % of control | [8] 113 % of control

CC(=O)n1cc(CS)c(=O)[nH]c1=O
inactive: dose: 5.0 mg/kg/injection, schedule: Q01DX001 (ip), vehicle: saline 105 % of control | dose: 10.0 mg/kg/injection, schedule: Q01DX001 (ip), vehicle: saline 98 % of control | dose: 20.0 mg/kg/injection, schedule: Q01DX001 (ip), vehicle: saline 105 % of control | dose: 40.0 mg/kg/injection, schedule: Q01DX001 (ip), vehicle: saline 105 % of control | dose: 80.0 mg/kg/injection, schedule: Q01DX001 (ip), vehicle: saline 105 % of control

CN(CO)c1nc(N(C)CO)nc(N(C)CO)n1
inactive: dose: 12.5 mg/kg/injection, schedule: Q01DX009 (ip), vehicle: saline 106 % of control and 108 % of control | [3] 105 % of control and 108 % of control | [4] 118 % of control and 110 % of control | [5] 117 % of control

Cc1cc(Br)c[nH]c1=O
inactive: [7] 104 % of control | [8] 94 % of control | [9] 108 % of control | [30] 100 % of control | [10] 104 % of control

CC(C)(O)C(=NCc1ccccc1)c1ccccc1
inactive: [27] 102 % of control | [28] 93 % of control | [29] 104 % of control

COC(=O)CCN(C(=O)c1ccccc1)c1ccccc1C(=O)OC
inactive: dose: 75.0 mg/kg/injection, schedule: Q04DX003 (ip), vehicle: saline 100 % of control | dose: 150.0 mg/kg/injection, schedule: Q04DX003 (ip), vehicle: saline 94 % of control | dose: 300.0 mg/kg/injection, schedule: Q04DX003 (ip), vehicle: saline 100 % of control

O=C(O)c1ccc(SSc2ccc(C(=O)O)cn2)nc1
inactive: [5] 102 % of control | [6] 96 % of control | [26] 94 % of control

— PubChem BioAssay AID256 (DTP/NCI, 2004)
